Each compound was assayed against T1, Human 5-lipoxygenase (Homo sapiens, UniProt P09917) (assay: Activity of compounds against 5-LO enzyme (LTB4 measurement and/or fluorescence method)). Conditions: 5-LO, single concentration of 10 uM in duplicate.
T1 construct: purchased Cayman 60402; host or cells: insect cells
T1 sequence (P09917 1-674): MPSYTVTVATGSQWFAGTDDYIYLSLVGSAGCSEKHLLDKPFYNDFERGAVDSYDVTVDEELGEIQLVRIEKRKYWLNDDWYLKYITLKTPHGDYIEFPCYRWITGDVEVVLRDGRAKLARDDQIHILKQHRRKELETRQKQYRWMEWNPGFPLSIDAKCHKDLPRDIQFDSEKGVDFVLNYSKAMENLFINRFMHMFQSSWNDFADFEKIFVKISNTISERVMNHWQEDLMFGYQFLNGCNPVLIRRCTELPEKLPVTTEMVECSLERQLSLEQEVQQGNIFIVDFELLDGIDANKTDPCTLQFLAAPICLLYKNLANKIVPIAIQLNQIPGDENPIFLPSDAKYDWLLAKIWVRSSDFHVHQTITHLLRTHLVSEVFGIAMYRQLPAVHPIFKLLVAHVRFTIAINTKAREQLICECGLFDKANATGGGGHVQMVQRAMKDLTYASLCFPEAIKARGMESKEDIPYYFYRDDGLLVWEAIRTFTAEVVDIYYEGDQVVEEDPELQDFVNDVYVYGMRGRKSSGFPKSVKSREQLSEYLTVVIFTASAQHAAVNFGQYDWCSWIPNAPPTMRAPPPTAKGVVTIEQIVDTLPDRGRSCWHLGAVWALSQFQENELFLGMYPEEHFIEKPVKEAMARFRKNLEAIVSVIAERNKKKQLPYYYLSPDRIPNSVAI
Assay type: biochemical
Method in brief: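 Insect-cell human 5-LO preincubated 15 min at RT with compound (pH 7.4, 2 mM CaCl2, 0.1 mM ATP, 1% DMSO), then 3 uM arachidonic acid for 5 min at 37 °C; LTB4 quantified by EIA and/or LC/MS/MS. Alternatively, fluorescence of 5-HpETE via H2DCFDA, 100 uM ATP, 3 uM arachidonic acid, 5 min, RT; single 10 uM screen then 6- or 11-point IC50.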

| Compound | inhibition at 10 µM [%] |
| --- | --- |
| Cc1nc2ccccn2c1C(=O)NCc1ccc(Oc2ccccc2)cc1 [compound 6, 2-Methyl-N-(4-phenoxybenzyl)imidazo[1,2-a]pyridine-3-carboxamide] | < 40 |
| CCc1nc2ccccn2c1C(=O)NCc1ccc(OC(C)C)cc1 [compound 53, 2-Ethyl-N-(4-isopropoxybenzyl)imidazo[1,2-a]pyridine-3-carboxamide] | < 40 |
| CCc1nc2ccc(Cl)cn2c1C(=O)NCc1ccc(-c2ccc(C)cc2)cc1 [compound 77, 6-Chloro-2-ethyl-N-((4′-methylbiphenyl-4-yl)methyl)imidazo[1,2-a]pyridine-3-carboxamide] | < 40 |
| CCc1nc2ccc(Cl)cn2c1C(=O)NCc1ccc(Oc2ccccc2)cc1 [compound 62] | < 40 |
| COC(=O)[C@H](Cc1ccccc1)NC(=O)c1c(C)nc2ccccn12 [compound 23, (S)-Methyl 2-(2-methylimidazo[1,2-a]pyridine-3-carboxamido)-3-phenylpropanoate] | < 40 |
| CCc1nc2ccc(Cl)cn2c1C(=O)NCc1ccc(-c2ccc(Cl)cc2)cc1 [compound 73, 6-Chloro-N-((4′-chlorobiphenyl-4-yl)methyl)-2-ethylimidazo[1,2-a]pyridine-3-carboxamide] | < 40 |
| CCc1nc2ccccn2c1C(=O)NCc1ccc(OC(F)(F)F)cc1 [compound 51, 2-Ethyl-N-(4-(trifluoromethoxy)benzyl)imidazo[1,2-a]pyridine-3-carboxamide] | < 40 |
| Cc1nc2c(Cl)cccn2c1C(=O)NCc1ccccc1 [compound 15, N-Benzyl-8-chloro-2-methylimidazo[1,2-a]pyridine-3-carboxamide] | < 40 |
| CCc1nc2ccc(Cl)cn2c1C(=O)NCc1ccc2ccn(C)c2c1 [compound 68] | < 40 |
| CCc1nc2ccc(C)cn2c1C(=O)NCc1ccc(OC(F)(F)F)cc1 [compound 59, 2-Ethyl-6-methyl-N-(4-(trifluoromethoxy)benzyl)imidazo[1,2-a]pyridine-3-carboxamide] | 40 to 69 |
| CCOC(=O)c1c(C)nc2cc(-c3ccccc3)ccn12 [compound 18, Ethyl 2-methyl-7-phenylimidazo[1,2-a]pyridine-3-carboxylate] | 40 to 69 |
| CCc1nc2ccccn2c1C(=O)NCc1ccc(C(C)(C)C)cc1 [compound 49, N-(4-tert-Butylbenzyl)-2-ethylimidazo[1,2-a]pyridine-3-carboxamide] | < 40 |
| Cc1nc2ccccn2c1C(=O)O [compound 2, 2-Methylimidazo[1,2-a]pyridine-3-carboxylic acid] | < 40 |
| CCc1nc2ccc(Cl)cn2c1C(=O)NCc1ccc(OC(F)(F)F)cc1 [compound 55] | 40 to 69 |
| CCc1nc2ccccn2c1C(=O)NCc1ccc(OCC(C)C)cc1 [compound 54, 2-Ethyl-N-(4-isobutoxybenzyl)imidazo[1,2-a]pyridine-3-carboxamide] | < 40 |

Further lines, results first:

| inhibition at 10 µM [%] | Compound |
| --- | --- |
| < 40 | CCc1nc2c(-c3ccncc3)cccn2c1C(=O)NCc1ccc(N2CCOCC2)cc1 [compound 284, 2-Ethyl-N-(4-morpholinobenzyl)-8-(pyridin-4-yl)imidazo[1,2-a]pyridine-3-carboxamide] |
| 40 to 69 | CCc1nc2cc(Cl)ccn2c1C(=O)NCc1ccc(-c2ccc(OC)cc2)cc1 [compound 113, 7-Chloro-2-ethyl-N-((4′-methoxybiphenyl-4-yl)methyl)imidazo[1,2-a]pyridine-3-carboxamide] |
| < 40 | CCc1nc2cc(OC)ccn2c1C(=O)NCc1ccc(OC(F)(F)F)cc1 [compound 118, 2-Ethyl-7-methoxy-N-(4-(trifluoromethoxy)benzyl)imidazo[1,2-a]pyridine-3-carboxamide] |
| 40 to 69 | CCc1nc2ccc(Cl)cn2c1C(=O)NCc1ccc(N2CCCCCC2)cc1 [compound 192, N-(4-(Azepan-1-yl)benzyl)-6-chloro-2-ethylimidazo[1,2-a]pyridine-3-carboxamide] |
| > 69 | CCc1nc2ccc(Cl)cn2c1C(=O)NCc1ccc(N2CCN(Cc3ccc(F)cc3)CC2)cc1 [compound 130, 6-Chloro-2-ethyl-N-(4-(4-(4-fluorobenzyl)piperazin-1-yl)benzyl)imidazo[1,2-a]pyridine-3-carboxamide] |
| > 69 | CCc1nc2ccc(Cl)cn2c1C(=O)NCc1ccc(N2CCC(c3ccc(Cl)cc3)CC2)cc1 [compound 296, 6-Chloro-N-(4-(4-(4-chlorophenyl)piperidin-1-yl)benzyl)-2-ethylimidazo[1,2-a]pyridine-3-carboxamide] |
| < 40 | CCc1nc2ccc(Cl)cn2c1C(=O)NCc1ccc(N2CCN(C(=O)c3ccc(F)cc3)CC2)cc1 [compound 319, 6-chloro-2-ethyl-N-(4-(4-(4-fluorobenzoyl)piperazin-1-yl)benzyl)imidazo[1,2-a]pyridine-3-carboxamide] |
| < 40 | CCc1nc2cc(Cl)ccn2c1C(=O)NCc1ccc(N2CCCCC2)cc1 [compound 89, 7-Chloro-2-ethyl-N-(4-(piperidin-1-yl)benzyl)imidazo[1,2-a]pyridine-3-carboxamide] |
| > 69 | CCc1nc2cc(Cl)ccn2c1C(=O)NCc1ccc(N2CCCCCC2)cc1 [compound 193, N-(4-(Azepan-1-yl)benzyl)-7-chloro-2-ethylimidazo[1,2-a]pyridine-3-carboxamide] |
| > 69 | CCc1nc2ccc(Cl)cn2c1C(=O)NCc1ccc(-c2ccc(Cl)cc2C(F)(F)F)cc1 [compound 100, 6-Chloro-N-((4′-chloro-2′-(trifluoromethyl)biphenyl-4-yl)methyl)-2-ethylimidazo[1,2-a]pyridine-3-carboxamide] |
| 40 to 69 | CCc1nc2cc(Cl)ccn2c1C(=O)NCc1ccc(N2CCC(COC3CCCC3)CC2)cc1 [compound 286, 7-Chloro-N-(4-(4-(cyclopentyloxymethyl)piperidin-1-yl)benzyl)-2-ethylimidazo[1,2-a]pyridine-3-carboxamide] |
| > 69 | CCc1nc2cc(Cl)ccn2c1C(=O)NCc1ccc(N2CCC(COC(F)F)CC2)cc1 [compound 295, 7-Chloro-N-(4-(4-((difluoromethoxy)methyl)piperidin-1-yl)benzyl)-2-ethylimidazo[1,2-a]pyridine-3-carboxamide] |
| 40 to 69 | CCc1nc2cc(Cl)ccn2c1C(=O)NCc1ccc(N2CCC(=O)CC2)cc1 [compound 200, 7-Chloro-2-ethyl-N-(4-(4-oxopiperidin-1-yl)benzyl)imidazo[1,2-a]pyridine-3-carboxamide] |
| 40 to 69 | CCc1nc2ccc(F)cn2c1C(=O)NCc1ccc(OC(F)(F)F)cc1 [compound 120, 2-Ethyl-6-fluoro-N-(4-(trifluoromethoxy)benzyl)imidazo[1,2-a]pyridine-3-carboxamide] |
| < 40 | CCc1nc2ccc(Cl)cn2c1C(=O)NCc1ccc(N2CCC(c3ccc(OC(F)(F)F)cc3)CC2)cc1 [compound 267, 6-Chloro-2-ethyl-N-(4-(4-(4-(trifluoromethoxy)phenyl)piperidin-1-yl)benzyl)imidazo[1,2-a]pyridine-3-carboxamide] |
| 40 to 69 | CCc1nc2cc(Cl)ccn2c1C(=O)NCc1ccc2[nH]c(-c3ccc(OC(F)(F)F)cc3)nc2c1 [compound 186, 7-Chloro-2-ethyl-N-((2-(4-(trifluoromethoxy)phenyl)-1H-benzo[d]imidazol-5-yl)methyl)imidazo[1,2-a]pyridine-3-carboxamide] |
| 40 to 69 | CCc1nc2cc(Cl)c(Cl)cn2c1C(=O)NCc1ccc(N2CCN(Cc3ccc(F)cc3)CC2)cc1 [compound 179, 6,7-Dichloro-2-ethyl-N-(4-(4-(4-fluorobenzyl)piperazin-1-yl)benzyl)imidazo1,2-al pyridine-3-carboxamide] |

Same assay, conditions: 6 or 11 point dose response in duplicate

| Compound | IC50 [µM] |
| --- | --- |
| CCc1nc2ccc(Cl)cn2c1CN1CCN(c2ccc(F)cc2)CC1 [compound 397, 6-chloro-2-ethyl-3-((4-(4-fluorophenyl)piperazin-1-yl)methyl)imidazo[1,2-a]pyridine] | > 20 |
| CCc1nc2ccc(Cl)cn2c1C(=O)NCc1ccc(OC(F)(F)F)cc1 [compound 55] | 1 to 20 |

Next, values leading:

| IC50 [µM] | Compound |
| --- | --- |
| 1 to 20 | CCc1nc2ccc(Cl)cn2c1C(=O)NCc1ccc(N2CCN(Cc3ccc(F)cc3)CC2)cc1 [compound 130, 6-Chloro-2-ethyl-N-(4-(4-(4-fluorobenzyl)piperazin-1-yl)benzyl)imidazo[1,2-a]pyridine-3-carboxamide] |
| 1 to 20 | CCc1nc2ccc(Cl)cn2c1C(=O)N1CC[C@@H](OCc2ccc(OC(F)(F)F)cc2)C1 [compound 391, (R)-(6-chloro-2-ethylimidazo[1,2-a]pyridin-3-yl)(3-(4-(trifluoromethoxy)benzyloxy)-pyrrolidin-1-yl)methanone] |
| > 20 | CCc1nc2cc(Cl)ccn2c1C(=O)NCc1ccc(N2CCCCCC2)cc1 [compound 193, N-(4-(Azepan-1-yl)benzyl)-7-chloro-2-ethylimidazo[1,2-a]pyridine-3-carboxamide] |
| < 1 | CCc1nc2cc(Cl)ccn2c1C(=O)N1CCC(Oc2ccc(OC(F)(F)F)cc2)CC1 [compound 380, (7-Chloro-2-ethylimidazo[1,2-a]pyridin-3-yl)(4-(4-(trifluoromethoxy)phenoxy)piperidin-1-yl)methanone] |
| 1 to 20 | CCc1nc2ccc(Cl)cn2c1C(=O)NCc1ccc(-c2ccc(Cl)cc2C(F)(F)F)cc1 [compound 100, 6-Chloro-N-((4′-chloro-2′-(trifluoromethyl)biphenyl-4-yl)methyl)-2-ethylimidazo[1,2-a]pyridine-3-carboxamide] |
| > 20 | CCc1nc2cc(Cl)ccn2c1C(=O)NCc1ccc(N2CCC(COC(F)F)CC2)cc1 [compound 295, 7-Chloro-N-(4-(4-((difluoromethoxy)methyl)piperidin-1-yl)benzyl)-2-ethylimidazo[1,2-a]pyridine-3-carboxamide] |

From patent US9029389B2 (Institut Pasteur Korea, priority 2011, dated 2015)
